Results: patent US7196108B2, “Bicyclic heterocycles for the treatment of diabetes and other diseases” (Incyte San Diego Inc., priority 2002, dated 2007)
“Also recorded” adds a separate entry of the source.

Columns and labels:
KKA^y mice = test: Oral administration in the treatment of type 2 diabetes in KKA^y mice (serum glucose and triglycerides); format: in vivo, mouse; conditions: 15 mg/kg oral gavage once daily in sesame oil, days 7 and/or 14, vs control; for serum glucose level: FIG. 2; for serum triglyceride level: FIG. 3
Experimental: These models include among others, db/db mice, ob/ob mouse, and KKA^y mice. […] A procedure for such experiments was described in detail in Iwatsuka, et al., 1970 General Survey of Diabetic Features of Yellow KK Mice. Endocrinol. Japon. 17: 23–35, incorporated herein by reference. The testing of the compounds of the invention was conducted as described in Example 22. The animals were treated with a single daily oral dose of 15 mg/kg of the test compound suspended in sesame oil (dose volume of 3–5 ml/kg). At the end of one and two weeks of treatment the animals were bled from the tail vein and their serum glucose and triglycerides and/or cholesterol was measured in duplicate.
Experimental Procedure: Six to eight week-old male KKA^y mice (available from Jackson Labs of Bar Harbour, Me.) were housed in a fixed 12–12-hr artificial light-dark cycle, and maintained on a standard rodent diet provided ad libitum. Animals were allowed two days to acclimate in this experimental environment prior to the initiation of the study. Prior to initiation of treatment, the animals were bled from the tail vein (100–200 μL of whole blood) and serum levels of glucose and triglycerides were measured in duplicate (Trinder kits; Sigma, St.Louis, Mo.). Based on these initial measures, animals were sorted into groups with approximately the same average serum triglyceride levels. Once sorted, the animals were housed one per cage and provided rodent diet ad libitum.
Treatment group A (n=6/group): • 1) KKA^y control (sesame oil) • 2) Compound 1 (15 mg/kg)
Treatment group B (n=6/group): • 1) KKA^y control (sesame oil) • 2) Compound 6 (15 mg/kg)
Treatment group C (n=6/group): • 1) KKA^y control (sesame oil) • 2) Compound 9 (15 mg/kg)
All compounds were suspended in sesame oil, and administered to animals in a volume of 3 ml/kg/dose. All treatments were administered by oral gavage once daily.
To monitor the effect of the tested Compounds, animals were bled at the end of the dark cycle on days 7 and/or 14 of the treatment period. Serum glucose and triglyceride levels were measured in duplicate. The blood was kept at room temperature to allow coagulation, after which the serum was separated and assayed for glucose and triglyceride levels.

[1] = disclosed in U.S. Pat. No. 6,515,003; cited from earlier work
3T3-L1 pre-adipocytes = conditions: disclosed in U.S. Pat. No. 6,515,003; cited from earlier work

Row | melting point [°C] | SMILES | serum glucose level (KKA^y mice) | serum triglyceride level (KKA^y mice) | activity for the treatment of diabetes [1] | adipocyte differentiation activity (3T3-L1 pre-adipocytes)
1 | 142 to 146 | CC(C)Cc1cc(-c2cc(/C=C3\SC(=O)NC3=O)ccc2OC(F)(F)F)c2c(c1)C(C)(C)CO2 [Compound 1, 5-[3-(5-Isobutyl-3,3-dimethyl-2,3-dihydro-benzofuran-7-yl)-4-trifluoromethoxy-benzylidene]-thiazolidine-2,4-dione] | significantly lowered; also recorded: reduction | lowered; also recorded: reduction | – | –
2 | – | COc1c(F)cc(/C=C2\SC(=O)NC2=O)c(F)c1-c1cc(CC(C)C)cc2c1OCC2(C)C [Compound 6, 5-[2,5-Difluoro-3-(5-isobutyl-3,3-dimethyl-2,3-dihydro-benzofuran-7-yl)-4-methoxy-benzylidene]-thiazolidine-2,4-dione] | significantly lowered; also recorded: reduction | lowered; also recorded: reduction | – | –
3 | – | CC1(C)COc2c(-c3cc(/C=C4\SC(=O)NC4=O)ccc3OC(F)(F)F)cc(-c3ccoc3)cc21 [Compound 9, 5-[3-(5-Furan-3-yl-3,3-dimethyl-2,3-dihydro-benzofuran-7-yl)-4-trifluoromethoxy-benzylidene]-thiazolidine-2,4-dione] | significantly lowered; also recorded: reduction | lowered; also recorded: reduction | – | –
4 | – | Cc1cc2c(cc1-c1cc(/C=C3\SC(=O)NC3=O)ccc1OC(F)(F)F)C(C)(C)CCC2(C)C [Compound 20, 5-[3-(3,5,5,8,8-Pentamethyl-5,6,7,8-tetrahydro-naphthalen-2-yl)-4-trifluoromethoxy-benzylidene]-thiazolidine-2,4-dione] | – | – | active | active
